Assay results: patent US20240365781A1, “SYNERGISTICALLY EFFECTIVE HERBICIDE COMPOSITION COMPRISING PELARGONIC ACID AND FLAZASULFURON” (Belchim Crop Protection NV, priority 2017, published 2024)

Experiments:
Format in all cases: in vivo
Digitaria sang = assay: post-emergence test, field trial (Examples 1-5); details: FT, pelargonic acid 5440 g/ha, flazasulfuron 50 g/ha, 8 L/ha
Source text: (§1) The expected activity of a given combination of two or three herbicides can be calculated as follows according to a calculation method by Colby (cf. COLBY, S. R.: “Calculating synergistic and antagonistic responses of herbicide combinations”, • Weeds 15, pages 20-22, 1967): • If X=% damage by herbicide (A) at an application rate of m g/ha, • Y=% damage by herbicide (B) at an application rate of n g/ha, • E=the expected damage by herbicides (A) and (B) at application rates of m and n […] and, • then for a combination:
(§2) Individual compositions comprising pelargonic acid or flazasulfuron are compared with a herbicide composition according to the invention comprising pelargonic acid and flazasulfuron.
(§3) Herbicidal activity was determined by performing a post-emergence test. […] The corresponding mixture was in the form of a spray liquor. Besides, spray liquors of individual compositions comprising pelargonic acid or flazasulfuron were used.
(§4) Tests were performed on test fields (field trials) or in pots (pot trials).

Trifolium repens = assay: post-emergence test, pot trial (Examples 1-5); details: 28 d, PT; pelargonic acid 10880 g/ha, flazasulfuron 50 g/ha; 16 L/ha
Source text: as §1, §2, §3, §4

Matricaria chamomilla = assay: post-emergence test, pot trial (Examples 1-5); details: bigger plants, 28 d, PT, pelargonic acid 10880 g/ha, 16 L/ha
Source text: as §1, §2, §3, §4

Setaria pumila = assay: post-emergence test, pot trial (Examples 1-5); details: young plants, 28 d, PT, pelargonic acid 10880 g/ha, 16 L/ha
Source text: as §1, §2, §3, §4

Geranium dissectum = assay: post-emergence test, pot trial (Examples 1-5); details: 28 d, PT, pelargonic acid 10880 g/ha, 16 L/ha
Source text: as §1, §2, §3, §4

Poa annua = assay: post-emergence test, pot trial (Examples 1-5); details: 28 d, PT; pelargonic acid 10880 g/ha, flazasulfuron 50 g/ha; 16 L/ha
Source text: as §1, §2, §3, §4

[1] = bigger plants, flazasulfuron 50 g/ha
[2] = young plants, flazasulfuron 25 g/ha
[3] = young plants, flazasulfuron 50 g/ha

Row | Compound | herbicidal effect (Digitaria sang; 3 d) | herbicidal effect (Digitaria sang; 7 d) | herbicidal effect (Digitaria sang; 12 d) | herbicidal effect (Digitaria sang; 72 d) | herbicidal effect (Trifolium repens) | herbicidal effect (Matricaria chamomilla; flazasulfuron 25 g/ha) | herbicidal effect (Matricaria chamomilla; flazasulfuron 50 g/ha) | herbicidal effect (Setaria pumila; flazasulfuron 25 g/ha) | herbicidal effect (Setaria pumila; flazasulfuron 50 g/ha) | herbicidal effect (Geranium dissectum; [1]) | herbicidal effect (Geranium dissectum; [2]) | herbicidal effect (Geranium dissectum; [3]) | herbicidal effect (Poa annua)
1 | CCCCCCCCC(=O)O [Pelargonic acid, nonanoic acid] | 51.3% | 30.8% | 5% | 0% | 0% | 0% | 0% | 40% | 40% | 24% | 32% | 32% | 0%
2 | COc1cc(OC)nc(NC(=O)NS(=O)(=O)c2ncccc2C(F)(F)F)n1 [Flazasulfuron, 1-(4,6-dimethoxypyrimidin-2-yl)-3-(3-trifluoromethyl-2-pyridylsulfonyl)urea] | 2.5% | 13.3% | 37.3% | 3.8% | 1.2% | 0% | 2% | 89% | 92% | 0% | 7% | 8% | 0%
